Laboratory results reported in US20210123016A1, “REGULATORS OF HUMAN PLURIPOTENT STEM CELLS AND USES THEREOF” (Novartis AG, priority 2018, published 2021).
Entries after “also recorded” stand apart in the source; their conditions may differ.

How the values were obtained:
iCas9 H1-hESCs [1] = test: Assaying survival without ROCK inhibitor (single cell dissociation and replating, IncuCyte confluence / time-lapse); type: cell-based, human; settings: control and PAWR knockout hPSCs, in the presence of thiazovivin (ROCK inhibitor)
Method: Control and mutant iCas9 H1-hESCs were dissociated with accutase for 10 minutes. Flowmi 40-micron cell strainers (BEL-ART H13680-0040) were used to ensure a uniform single cell suspension prior to replating cells. Cells were plated at a density of 10,500 to 21,000 cells/cm^2 plus or minus thiazovivin (ROCK inhibitor). Timelapse images were taken in 1 hr intervals using IncuCyte zoom (Essen Biosciences). The confluence processing analysis tool (IncuCyte Zoom Software) calculated confluency for each sample.

iCas9 H1-hESCs [2] = test: Phalloidin stain of filamentous (F-) ACTIN in fixed cells after dissociation; type: cell-based, human; settings: thiazovivin treated cells after dissociation, stain at 3.5 h
Method: Immunofluorescence staining of fixed cells was performed as described by Ihry et. al., 2017. Protein lysates were made by vortexing cell pellets in […] (Thermo Scientific 89901) supplemented with Halt protease inhibitor cocktail (Thermo Scientific 78430) and phosphatase inhibitors (Thermo Scientific 1862495). Samples were incubated at 4 C for 10 minutes before centrifugation at 14,000×g for 10 minutes at 4 C. Supernatants were transferred to new tubes and quantified using the BCA protein assay kit (Thermo Scientific 23225) and a SpectraMax Paradigm (Molecular Devices) plate reader. Samples were prepared with NuPAGE LDS sample buffer 4× (Invitrogen NP0008) and NuPAGE sample reducing agent (Invitrogen NP0009) and heated for 10 minutes at 70 C. Chameleon Duo Pre-stained Protein Ladder (LiCOR P/N 928-60000) was loaded alongside 10 ug of protein per sample on a NuPAGE 4-12% Bis-Tris Protein Gels, 1.5 mm, 10-well (Invitrogen NP0335BOX). Gel electrophoresis was performed at 150 V for 1 hr in NuPAGE MOPS SDS Running buffer (20×) (Invitrogen NP0001) using a XCell SureLock Mini-Cell (Thermo Scientific E10002). Transfer was performed using an iBlot 2 dry blotting system (Thermo IB21002 and IB23002) as described by manufacturer. Blots were blocked in TBS blocking buffer (LiCOR 927-50000) for 1 hour at room temperature. […]

O=C(NCc1ccccc1)c1csc(Nc2ccncn2)n1 [thiazovivin]
survival after single cell dissociation and replating (iCas9 H1-hESCs [1]): survive replating; also recorded: survived as single cells
cytoskeletal organization (F-ACTIN, phalloidin) (iCas9 H1-hESCs [2]): increased surface area, a fanned-out shape with actin stress fibers, and a large circular adhesion belt-like structure
